Source: patent US11672786B2, “Methods of treating diseases associated with repeat instability” (The Hospital for Sick Children, priority 2016, dated 2023)
Values joined by “and” are separate entries in the source; they are usually repeats but may differ in a detail not shown here. Equal values may be shown once.

Experiments:
HD fibroblasts (CAG)43 = experiment: small-pool PCR across HD repeat tract, HD primary fibroblasts GM02191; assay type: cell-based, human; details: 40 days; for % Contraction / % Expansion / % Unchanged / Average repeat size: 50 uM NA
Protocol: The construction of the HT1080-(CAG)850 cell model was described previously (Sathasivam et al., 1997, Hum. Genet., 99:692-5). Briefly, HT1080 (ATCC) human fibrosarcoma cells were co-transfected with a plasmid (LC15-R) containing 800-850 (CTG)●(CAG) repeats (Nakatani et al., 2005, Nat. Chem. Biol., 1:39-43) and a plasmid encoding PhiC31 integrase. Transfection was performed with a Nucleofector (Lonza, Basel, Switzerland), and stably transfected clones were selected with puromycin. […] The HT1080-non-transcribing (CAG)850 cell model was established by transfecting a plasmid modified from pLC16 by inserting an additional SV40 polyadenylation signal downstream of the repeats (in addition to the original polyadenylation signals located upstream of the repeats), so that CAG/CTG repeats are floxed by transcription-terminator elements. The AttB-PhiC31 system has been widely used for single copy integration. […] The HT1080 model cells and an HD primary fibroblast cell line, GM09197 (Coriell Biorepository) with a large expanded allele of 180 CAG repeats and a non-expanded allele of 23 repeats (Sathasivam et al., 1997, Hum. Genet., 99:[…]), the HD primary fibroblast cell line, GM02191 (Coreill Biorepository) with an expanded allele of 43 CAG repeats and a non-expanded allele of 19 repeats, were cultured at 37° C. with 5% CO2 in Dulbecco's modified Eagle's medium supplemented with 10% fetal bovine serum and 1% penicillin/streptomycin. Cells were treated with or without continuous exposure to 50-μM NA for 30 days (HT1080 cells) or for 40 days (fibroblast cells). For experiments on non-proliferating cells, HT1080 cells were grown to confluence and then treated for the same period. WST-1 assay was performed according to the manufacturer's instructions (Roche, Basel, Switzerland). All cell lines were tested to be free of Mycoplasma. Three biological replicates were performed for each experiment.
Genomic DNA was extracted from HT1080-(CAG)850 clones and HD primary fibroblasts using the Gentra Puregene Cell Kit (Qiagen, Valencia, Calif.). The expanded (CTG)●(CAG) repeats were sized by small-pool PCR (sp-PCR) followed by Southern blot as described previously (Sathasivam et al., 1997, Hum. Genet., 99:692-5). For HT1080 models, small-pool PCR (spPCR) was performed with the input of 1.4-1.7 genome equivalents. The repeat size difference in the models is, at most, 3000 base-pairs, therefore, being strictly conservative, a bias toward amplifying the shorter allele can be possible, even under optimized PCR conditions described herein. For HD primary fibroblasts, sp-PCR & Southern blots were performed as described previously with slight modifications (Tome et al., 2013, PLoS Genet., 9:e1003280). Briefly, the PCR primers listed in Table 1 were used, and blots were hybridized with a DIG-labeled (CAG)7 locked nucleic acid probe (Nakamori et al. 2009, Neuromuscul. Disord., 19:759-62). At least 50 alleles were analyzed for each of the three experiments (more than 150 alleles for a total study). Repeat analyses are summarized in Table 2, compiled from complete small-pool-PCR datasets for each repetition of each experiment. For the histograms in FIGS. 4D, 4E, 10, 11, 5B, 5D, 5E, 14 and 15B, the Y-axis, “% of repeat population” was calculated by determining the proportion of >50 individual small-pool PCR reactions across the CAG repeat tract, that harbored a certain size of repeat product with a certain length. Cell clones were grown 30 or 40 days with or without NA (see, for example, Sathasivam et al., 1997, Hum. Genet., 99:692-5). Specifically, the histograms of repeat length distributions were from at least two different cell clones. Length distributions were determined as follows: Small-pool PCR followed by Southern blot for analysis of CAG/CTG repeat length.

[1] = system: Slip-outs of 3, 5, 11 or 15 CAG repeats; experiment: band-shift NA binding to slip-outs of 3, 5, 11 or 15 CAG repeats; details: NA 15 μM and 50 μM
Protocol: Slip-outs of 3, 5, 11 or 15 CAG repeats extruded as a single slip-out from a fully base-paired backbone (see top panel, DNAs sequence and structure). One pmol of each substrate was mixed with increasing concentrations of NA (15 μM and 50 μM) and resolved on 4% polyacrylamide gels. All lanes are from the same gel, and they were separated for clarity. NA-DNA complexes are shown by brackets, free DNA is indicated by arrowheads. For the linear substrate, there is no NA binding (white arrowheads); at the higher concentration of NA, a small decrease of the short slip-outs DNAs (3 and 5 repeats) is observed (grey arrowheads), but it is not possible to define a clear shifted band; band-shift is evident for the (CAG)11 and (CAG)15 slip-out DNAs (black arrowheads). The relative mobility shift was measured (graph panel) as the ratio of the migration distance of each NA-DNA complex to the migration distance of the free DNA. The migration distance was measured from the well to a consistent centre point of each band. Histograms indicate the mean of three independent experiments and the corresponding standard deviation. P-values were calculated by Student's t test.

[2] = system: Mapkap1 and Fgd4 loci in striatum from R6/2 mouse; experiment: repeat-tract lengths of non-expanded loci in R6/2 striatum; assay type: in vivo; details: four injections, both sides of striatum
[3] = single experiments Ex 1-3, cut-off ±10 repeats

Substance: naphthyridine-azaquinolone
- lowest repeat length reached by contractions (HD fibroblasts (CAG)43; 50 μM NA, HD disease threshold 35 units): ≥ 20 repeats
- % Contraction (HD fibroblasts (CAG)43; Total): 25.3%
- % Expansion (HD fibroblasts (CAG)43; Total): 4.9%
- % Unchanged (HD fibroblasts (CAG)43; Total): 69.8%
- Average repeat size (HD fibroblasts (CAG)43; Total): 40.7 number of repeats
- % Unchanged (HD fibroblasts (CAG)43; single experiments Ex 1-3): 67.0% and 69.2% and 73.2%
- Average repeat size (HD fibroblasts (CAG)43; single experiments Ex 1-3): 40.6 number of repeats and 40.4 number of repeats and 41.0 number of repeats
- % Contraction (HD fibroblasts (CAG)43; [3]): 28.4% and 25.2% and 22.3%
- % Expansion (HD fibroblasts (CAG)43; [3]): 4.6% and 5.6% and 4.5%
- NA binding by slip-out length (relative mobility shift) [1]: significantly better for longer than shorter CAG slip-outs
- length variation at Mapkap1 and Fgd4 loci [2]: Length variation was not observed
